# According to ChEMBL document CHEMBL3045786, “Insect antifeedant activity of tetranortriterpenoids from the Rutales. A perusal of structural relations” (2002):
# System: Spodoptera litura
# Assay: Feeding index against larvae of Spodoptera litura in castor leaves =
row,Compound,PFI
1,C/C=C(\C)C(=O)O[C@H]1CC(=O)[C@@]2(C)CO[C@H]3[C@H]4O[C@@H]5C[C@@H](c6ccoc6)C(C)=C5[C@@]4(C)[C@H](CC(=O)OC)[C@]1(C)[C@@H]32 [3-OXOSALANNIN],42.9%
2,C/C=C(\C)C(=O)O[C@@H]1[C@@H]2OC[C@]3(C)[C@H](O)C[C@H](O)[C@@]4(CO[C@H](C(=O)OC)[C@H]4[C@]1(C)[C@]14O[C@@]1(C)[C@H]1C[C@@H]4O[C@@H]4OC=C[C@@]41O)[C@@H]23 [3-TIGLOYL MELIACARPIN],13.3%
3,CC(=O)O[C@@H]1C[C@@H](O)[C@@]2(C)[C@@H](C[C@@H](OC(C)=O)[C@@]3(C)C4=CC[C@@H](C5=C[C@@H](CC(C)C)O[C@@H]5O)[C@]4(C)C[C@@H](O)[C@@H]32)C1(C)C [3R-ACETOXY-1R-HYDROXYAZADIRACHTOL],4.2%
4,COC(=O)C[C@H]1[C@]2(C)C3=C(C)[C@H](c4ccoc4)C[C@H]3O[C@@H]2C(=O)[C@@H]2[C@]1(C)C(=O)C=C[C@@]2(C)C(=O)OC [6-OXONIMBIN],42.3%
5,CC(=O)O[C@@H]1C(=O)[C@H]2C(C)(C)C(=O)C=C[C@]2(C)[C@H]2CC[C@]3(C)C(=CC[C@H]3c3ccoc3)[C@]12C [6-OXONIMONOL],44.2%
6,C/C=C(\C)C(=O)O[C@H]1C[C@@H](OC(C)=O)[C@@]2(C(=O)OC)CO[C@H]3[C@@H](O)[C@@](C)([C@]45O[C@@]4(C)[C@H]4C[C@@H]5O[C@@H]5OC=C[C@@]54O)[C@@H]4[C@H](O)OC[C@@]14[C@@H]32 [AZADIRACHTIN H],30.5%
7,C/C=C(\C)C(=O)O[C@H]1C[C@@H](OC(C)=O)[C@@]2(C)CO[C@@H]3[C@@H](O)[C@@](C)([C@]45O[C@@]4(C)[C@H]4C[C@@H]5O[C@@H]5OC=C[C@@]54O)[C@H]4[C@]1(CO[C@]4(O)C(=O)OC)[C@@H]32 [AZADIRACHTIN-D],28.9%
8,C/C=C(\C)C(=O)O[C@H]1C[C@@H](OC(C)=O)[C@@]2(C)CO[C@H]3[C@@H](O)[C@@](C)([C@]45O[C@@]4(C)[C@H]4C[C@@H]5O[C@@H]5OC=C[C@@]54O)[C@@H]4[C@H](O)OC[C@@]14[C@@H]32 [AZADIRACHTIN-I],32.2%
9,COC(=O)[C@H]1OC[C@]23[C@@H]1[C@](C)([C@]14O[C@@]1(C)[C@H]1C[C@@H]4O[C@@H]4OC=C[C@@]41O)[C@H](O)[C@@H]1OC[C@](C(=O)OC)([C@H](O)C[C@@H]2O)[C@H]13 [AZADIRACHTOL],6.1%
10,C/C=C(\C)C(=O)O[C@H]1C[C@@H](OC(C)=O)[C@@]2(C(=O)OC)CO[C@H]3[C@@H](O)[C@@](C)([C@]45O[C@@]4(C)[C@H]4C[C@@H]5O[C@@H]5OC=C[C@@]54O)[C@H]4[C@]1(CO[C@]4(O)C(=O)OC)[C@@H]32 [AZADIRACTIN],27.5%
11,CC(=O)O[C@@H]1C[C@H]2C(C)(C)C(=O)C=C[C@]2(C)[C@H]2CC[C@]3(C)C(=CC(=O)[C@H]3C3=CC(O)OC3=O)[C@@]21C (stereo not given in full) [AZADIRADIONE PP],34.7%
12,CC(=O)O[C@@H]1C[C@H]2C(C)(C)C(=O)C=C[C@]2(C)[C@H]2CC[C@]3(C)C(=CC(=O)[C@H]3c3ccoc3)[C@@]21C [AZADIRADIONE],35.5%
13,CC(=O)O[C@@H]1C[C@H]2C(C)(C)C(=O)C=C[C@]2(C)[C@H]2CC[C@]3(C)C(=CC[C@H]3c3ccoc3)[C@@]21C [AZADIRONE],48.3%
14,CC(=O)OC1=C2C(C)(C)C(=O)C=C[C@]2(C)[C@H]2CC[C@@]3(C)[C@H](c4ccoc4)C[C@H]4O[C@]43[C@]2(C)C1=O [CEDRELONE ACETATE],55%
15,CC1(C)C(=O)[C@H]2O[C@H]2[C@@]2(C)C1=C(O)C(=O)[C@]1(C)[C@@H]2CC[C@@]2(C)[C@H](c3ccoc3)C[C@H]3O[C@]321 [CEDRELONE EPOXIDE],43.5%
16,CC1(C)C(=O)C=C[C@@]2(C)C1=C(O)C(=O)[C@]1(C)[C@@H]2CC[C@@]2(C)[C@H](C3=CC(O)OC3=O)C[C@H]3O[C@]321 (stereo not given in full) [CEDRELONE PP-OH],22.4%
17,CC1(C)C(=O)C=C[C@@]2(C)C1=C(O)C(=O)[C@]1(C)[C@@H]2CC[C@@]2(C)[C@H](C3=CO[C@@H]4O[C@H]34)C[C@H]3O[C@]321 [CEDRELONE-22-EPOXIDE],44.2%
18,CC(=O)OC1=C2C(C)(C)C(=O)[C@H]3O[C@H]3[C@]2(C)[C@H]2CC[C@@]3(C)[C@H](c4ccoc4)C[C@H]4O[C@]43[C@]2(C)C1=O [CEDRELONEEPOXIDE ACETATE],53.2%
19,COC1=C2C(C)(C)C(=O)C=C[C@]2(C)[C@H]2CC[C@@]3(C)[C@H](c4ccoc4)C[C@H]4O[C@]43[C@]2(C)C1=O [CEDRELONEMETHYL ETHER],56%
20,CC1(C)C(=O)C=C[C@@]2(C)C1=C(O)C(=O)[C@]1(C)[C@@H]2CC[C@@]2(C)[C@H](c3ccoc3)C[C@H]3O[C@]321 [CEDRELONE],51.5%
21,COC(=O)C[C@H]1[C@]2(C)C3=C(C)[C@H](c4ccoc4)C[C@H]3O[C@@H]2[C@H](O)[C@@H]2[C@]1(C)C(=O)C=C[C@@]2(C)C(=O)OC [DEACETYLNIMBIN],34.7%
22,C/C=C(\C)C(=O)O[C@H]1C[C@@H](O)[C@@]2(C)CO[C@H]3[C@H]4O[C@@H]5C[C@@H](c6ccoc6)C(C)=C5[C@@]4(C)[C@H](CC(=O)OC)[C@]1(C)[C@@H]32 [DESACETYL SALANNIN],44.67%
23,C/C=C(\C)C(=O)O[C@H]1C[C@@H](O)[C@@]2(C)CO[C@H]3[C@H]4O[C@@H]5C[C@@H](C6=CC(O)OC6=O)C(C)=C5[C@@]4(C)[C@H](CC(=O)OC)[C@]1(C)[C@@H]32 (stereo not given in full) [DESACETYL SALANNOLIDE],28.44%

row,Compound,PFI
1,COC(=O)C[C@H]1[C@]2(C)C3=C(C)[C@H](C4=CCOC4=O)C[C@H]3O[C@@H]2[C@H](O)[C@@H]2[C@]1(C)C(=O)C=C[C@@]2(C)C(=O)OC [DESACETYLNIMBIN MW],35.1%
2,C/C=C(\C)C(=O)O[C@H]1C[C@@H](O)[C@@]2(C)CO[C@H]3[C@H]4O[C@@H]5C[C@@H](C6=CCOC6=O)C(C)=C5[C@@]4(C)[C@H](CC(=O)OC)[C@]1(C)[C@@H]32 [DESACETYLSALANNOBUTYROLACTONE],40.35%
3,CC1(C)C(=O)C=C[C@@]2(C)C1=C(O)C(=O)[C@@]1(C)C3=CC[C@@H](c4ccoc4)[C@]3(C)CC[C@@H]12 [DESEPOXYCEDRELONE],55.3%
4,COC1=C2C(C)(C)C(=O)CC[C@]2(C)[C@H]2CC[C@@]3(C)[C@H](c4ccoc4)C[C@H]4O[C@]43[C@]2(C)C1=O [DIHYDROCEDRELONE METHYL ETHER],56.5%
5,CC1(C)C(=O)CC[C@@]2(C)C1=C(O)C(=O)[C@]1(C)[C@@H]2CC[C@@]2(C)[C@H](c3ccoc3)C[C@H]3O[C@]321 [DIHYDROCEDRELONE],50.5%
6,CC(=O)O[C@@H]1C[C@H]2C(C)(C)C(=O)C=C[C@]2(C)[C@H]2CC[C@@]3(C)[C@H](C4=CC(O)OC4=O)C(=O)[C@H]4O[C@]43[C@@]21C (stereo not given in full) [EPOXY AZADIRADIONE PP],29.4%
7,CC(=O)O[C@@H]1[C@H](O)[C@H]2C(C)(C)C(=O)C=C[C@]2(C)[C@H]2CC[C@@]3(C)[C@H](c4ccoc4)C[C@H]4O[C@]43[C@]12C [EPOXY NIMONOL],32%
8,CC(=O)O[C@@H]1C[C@H]2C(C)(C)C(=O)C=C[C@]2(C)[C@H]2CC[C@@]3(C)[C@H](c4ccoc4)C(=O)[C@H]4O[C@]43[C@@]21C [EPOXYAZADIRADIONE],50.4%
9,CC(=O)O[C@@H]1C[C@H]2C(C)(C)C(=O)C=C[C@]2(C)[C@H]2CC[C@@]3(C)[C@H](c4ccoc4)OC(=O)[C@H]4O[C@]43[C@@]21C [GEDUNIN],37.3%
10,CC(=O)O[C@@H]1C[C@H]2C(C)(C)CC(=O)C=C[C@]2(C)[C@H]2CC[C@]3(C)C(=CC[C@H]3c3ccoc3)[C@@]21C [HOMOAZADIRADIONE],60%
11,CC(=O)O[C@@H]1[C@H](O)[C@H]2C(C)(C)C(=O)CC[C@]2(C)[C@H]2CC[C@]3(C)C(=CC[C@H]3C3=CC(O)OC3=O)[C@]12C (stereo not given in full) [ISOMELDENIN PP],28.3%
12,CC(=O)OC1[C@H](O)[C@H]2C(C)(C)C(=O)CC[C@]2(C)[C@H]2CC[C@]3(C)C(=CC[C@H]3c3ccoc3)[C@]12C (stereo not given in full) [ISOMELDENIN],60.6%
13,COC1=C2C(C)(C)C(=O)[C@H]3O[C@H]3[C@]2(C)[C@H]2CC[C@@]3(C)[C@H](c4ccoc4)C[C@H]4O[C@]43[C@]2(C)C1=O [METHYL ETHER CEDRELONEEPOXIDE],54%
14,C=C1[C@@H]2CC[C@@]3(C)[C@H](c4ccoc4)OC(=O)C[C@]13O[C@H]1CC(=O)C(C)(C)[C@H](CC(=O)OC)[C@]12C [METHYLANGOLENSATE],65.3%
15,COC(=O)C[C@H]1[C@]2(C)C3=C(C)[C@H](C4=CCOC4=O)C[C@H]3O[C@@H]2[C@H](OC(C)=O)[C@@H]2[C@]1(C)C(=O)C=C[C@@]2(C)C(=O)OC [NIMBIN MW],42.9%
16,COC(=O)C[C@H]1[C@]2(C)C3=C(C)[C@H](C4=CC(=O)OC4O)C[C@H]3O[C@@H]2[C@H](OC(C)=O)[C@@H]2[C@]1(C)C(=O)C=C[C@@]2(C)C(=O)OC (stereo not given in full) [NIMBIN PP],19.9%
17,COC(=O)C[C@H]1[C@]2(C)C3=C(C)[C@H](C4=CC(O)OC4=O)C[C@H]3O[C@@H]2[C@H](OC(C)=O)[C@@H]2[C@]1(C)C(=O)C=C[C@@]2(C)C(=O)OC (stereo not given in full) [NIMBINOLIDE],26.7%
18,COC(=O)C[C@H]1[C@]2(C)C3=C(C)[C@H](c4ccoc4)C[C@H]3O[C@@H]2[C@H](OC(C)=O)[C@@H]2[C@]1(C)C(=O)C=C[C@@]2(C)C(=O)OC [NIMBIN],33.7%
19,COC(=O)C[C@H]1[C@]2(C)C3=C(C)[C@H](c4ccoc4)C[C@H]3O[C@@H]2[C@@H]2OC(=O)[C@]3(C)C=CC(=O)[C@@]1(C)[C@@H]23 [NIMBOLIDE],37%
20,CC(=O)O[C@@H]1[C@H](O)[C@H]2C(C)(C)C(=O)C=C[C@]2(C)[C@H]2CC[C@]3(C)C(=CC[C@H]3C3=CCOC3=O)[C@]12C [NIMONOL MW],44.2%
21,CC(=O)O[C@@H]1[C@H](O)[C@H]2C(C)(C)C(=O)C=C[C@]2(C)[C@H]2CC[C@@]3(C)[C@H](C45CC(O)OC4O5)C[C@@H]4O[C@@]43[C@]12C (stereo not given in full) [NIMONOL PP2],15.8%
22,CC(=O)O[C@@H]1[C@H](O)[C@H]2C(C)(C)C(=O)C=C[C@]2(C)[C@H]2CC[C@@]3(C)[C@H](C4=CC(O)OC4=O)C[C@@H]4O[C@@]43[C@]12C (stereo not given in full) [NIMONOLIDE],21.3%
